# Patent publication US8058243B2, “Method for treating a brain cancer with ifenprodil” (HSC Research and Development Limited Partnership, priority 2006, dated 2011)
# Where a name gives a salt, the structure may show the parent alone. Read-outs that look alike come from different tables or passages of the source.
# System: murine neural precursor cells (neurosphere cultures)
# Test: HTS of LOPAC library against secondary neurosphere cultures, MTT proliferation assay at 3 μM, day 7 (z score, P value)
# Type: cell-based, mouse
# [1] = LOPAC library screen, 3 μM, MTT, secondary neurosphere cultures, day 7
# [2] = LOPAC primary screen, neurosphere MTT proliferation, 3 μM, day 7
# [3] = yes/no: significantly inhibited neurosphere proliferation (P<0.01) in the primary screen
# [4] = LOPAC library screen, 3 μM, MTT, neurosphere cultures
# [5] = LOPAC screen, neurosphere MTT proliferation, 3 μM, day 7
# [6] = yes/no: significantly inhibited neurosphere proliferation (P<0.01) in primary screen
# [7] = LOPAC library screen at 3 μM, secondary neurosphere cultures, MTT
# [8] = LOPAC library screen at 3 μM, MTT, secondary neurosphere cultures, screened in singlets
compound,measurement,setting,value
CC(C)N(CCC(C(N)=O)(c1ccccc1)c1ccccn1)C(C)C (centres unmarked) [Disopyramide],Z Score,[1],−4.179
same,Z score,[2],−4.179
same,Activity,[3],yes
CC(CCc1ccc(O)cc1)NCCc1ccc(O)c(O)c1 (centres unmarked) [Dobutamine hydrochloride],Z Score,[4],0.3185
same,Z score,[5],0.319
same,Activity,[6],no
O=c1[nH]c2ccccc2n1CCCN1CCC(n2c(=O)[nH]c3cc(Cl)ccc32)CC1 [Domperidone],Activity,,no
same,Z Score,[1],−1.525
same,Z score,[2],−1.525
Cl.NCCc1ccc(O)c(O)c1 [Dopamine hydrochloride],Activity,,no
same,Z Score,,1.352
same,Z score,,1.352
COc1cc2nc(N3CCN(C(=O)C4COc5ccccc5O4)CC3)nc(N)c2cc1OC (centres unmarked) [Doxazosin mesylate],Z Score,[1],−1.861
same,Z score,[5],−1.861
same,Activity,[6],no
CN(C)CCC=C1c2ccccc2COc2ccccc21 [Doxepin hydrochloride],Z Score,"168 h, 3 µM",−1.012
same,Z score,"168 h, 3 µM",−1.012
same,Activity,[3],no
C[C@H]1c2cccc(O)c2C(=O)C2=C(O)[C@]3(O)C(=O)C(C(N)=O)=C(O)[C@@H](N(C)C)[C@@H]3[C@@H](O)[C@@H]21 [Doxycycline hydrochloride],Z Score,[7],−0.5578
same,Z score,[5],−0.558
same,Activity,[6],no
CN(C)CCOC(C)(c1ccccc1)c1ccccn1 (centres unmarked) [Doxylamine succinate],Z Score,[8],1.736
same,Z score,[5],1.736
same,Activity,[6],no
O=C(CCCN1CC=C(n2c(=O)[nH]c3ccccc32)CC1)c1ccc(F)cc1 [Droperidol],Activity,,no
same,Z Score,[4],0.6447
same,Z score,[5],0.645
COc1c2c(nc3ccccc13)OC(C(C)(O)CO)C2 (centres unmarked) [Dubinidine],Z Score,,−2.437
same,Z score,[2],−2.437
same,Activity,[3],yes
CC(C)CC(NC(=O)C1OC1C(=O)O)C(=O)NCCCCNC(=N)N (centres unmarked) [E-64],Z Score,,−1.709
same,Z score,[5],−1.709
same,Activity,[6],no
CCCCCCCCCCCCCCCCCCOCC(COP(=O)([O-])OCC[N+](C)(C)C)OC (centres unmarked) [ET-18-OCH3],Z Score,[7],−0.6259
same,Z score,[5],−0.626
same,Activity,[6],no
O=c1c2ccccc2[se]n1-c1ccccc1 [Ebselen],Z Score,[7],−0.2515
same,Z score,[2],−0.251
CC[N+](C)(C)c1cccc(O)c1 [Edrophonium chloride],Z Score,,−0.8064
same,Z score,[2],−0.806
same,Activity,[6],no
CCC1(C2=NCCN2)Cc2ccccc2O1 (centres unmarked) [Efaroxan hydrochloride],Z Score,[1],−2.338
same,Z score,[2],−2.338
same,Activity,[3],yes
Cc1c2ccncc2c(C)c2c1[nH]c1ccccc12 [Ellipiticine],Z score,[2],−8.321
same,Activity,yes = significantly inhibited neurosphere proliferation (P<0.01) in the primary screen,yes
Cc1c2ccncc2c(C)c2c1[nH]c1ccccc12 [Ellipticine],Z Score,[1],−8.321
CC[C@H]1CN2CCc3cc(OC)c(OC)cc3[C@@H]2C[C@@H]1C[C@H]1NCCc2cc(OC)c(OC)cc21 [Emetine dihydrochloride hydrate],Activity,,yes
same,Z Score,[1],−10.63
same,Z score,[2],−10.633
Cc1cc(O)c2c(c1)C(=O)c1cc(O)cc(O)c1C2=O [Emodin],Z Score,"168 h, 3 µM",−0.4835
same,Z score,"168 h, 3 µM",−0.483
same,Activity,[6],no
O=C(O)[C@@H]1[C@H](C(=O)O)[C@H]2CC[C@@H]1O2 [Endothall],Z Score,,−1.143
same,Z score,[2],−1.143
same,Activity,[6],no
CSc1ccc(C(=O)c2[nH]c(=O)[nH]c2C)cc1 [Enoximone],Z Score,[7],−0.6237
same,Z score,[5],−0.624
same,Activity,[6],no
CC(C)C[C@H](NC(=O)[C@H](O)[C@H](N)Cc1ccccc1)C(=O)O [Epibestatin hydrochloride],Z Score,[7],−0.7869
same,Z score,[5],−0.787
same,Activity,[6],no
CC(C)[C@@]1(NC(=O)[C@@H]2C=C3c4cccc5[nH]cc(c45)C[C@H]3N(C)C2)O[C@@]2(O)[C@@H]3CCCN3C(=O)[C@H](Cc3ccccc3)N2C1=O [Ergocristine],Z Score,,0.4078
same,Z score,[2],0.408
same,Activity,[6],no
C[C@]12CC[C@@H]3c4ccc(O)cc4CC[C@H]3[C@@H]1CCC2=O [Estrone],Z Score,[4],0.04081
same,Z score,[2],0.041
CCOC(=O)c1cnc2c(cnn2CC)c1NN=C(C)C [Etazolate hydrochloride],Z Score,"168 h, 3 µM",−0.2465
same,Z score,"168 h, 3 µM",−0.247
same,Activity,[6],no
CCC1(C)CC(=O)NC1=O (centres unmarked) [Ethosuximide],Z Score,[7],−0.6124
same,Z score,[2],−0.612
same,Activity,[6],no
CCc1cccc2c3c([nH]c12)C(CC)(CC(=O)O)OCC3 (centres unmarked) [Etodolac],Z Score,[7],−0.5582
same,Z score,[5],−0.558
same,Activity,[6],no
COC(=O)c1c(C)[nH]c(C)c1C(=O)c1ccccc1Cc1ccccc1 [FPL 64176],Z Score,,−1.099
same,Z score,[2],−1.099
same,Activity,[6],no
CCCn1c(=O)c2[nH]c(C3CCCC3)nc2n(CCCOC(=O)c2ccc(S(=O)(=O)F)cc2)c1=O [FSCPX],Z Score,,0.7825
same,Z score,[2],0.782
same,Activity,[6],no
NC(N)=Nc1nc(CSCCC(N)=NS(N)(=O)=O)cs1 [Famotidine],Activity,,no
same,Z Score,[4],0.05489
same,Z score,[2],0.055
CC(C)=CCCC(C)=CCCC(C)=CCSc1ccccc1C(=O)O [Farnesylthiosalicylic acid],Z Score,[4],0.9061
same,Z score,[2],0.906
same,Activity,[6],no
NC(=O)OCC(COC(N)=O)c1ccccc1 [Felbamate],Z Score,[7],−0.4586
same,Z score,[2],−0.459
same,Activity,[6],no
CCOC(=O)C1=C(C)NC(C)=C(C(=O)OC)C1c1cccc(Cl)c1Cl (centres unmarked) [Felodipine],Z Score,[7],−0.9658
same,Z score,[2],−0.966
CC(C)OC(=O)C(C)(C)Oc1ccc(C(=O)c2ccc(Cl)cc2)cc1 [Fenofibrate],Z Score,[1],−2.116
same,Z score,[2],−2.116
Oc1ccc(C2CNCCc3c2cc(O)c(O)c3Cl)cc1 (centres unmarked) [Fenoldopam bromide],Z Score,[4],0.05219
same,Z score,[2],0.052
same,Activity,[6],no
CC(Cc1ccc(O)cc1)NCC(O)c1cc(O)cc(O)c1 (centres unmarked) [Fenoterol hydrobromide],Z Score,,−1.841
same,Z score,[2],−1.841
same,Activity,[6],no
O=C1NCC2(CCN(CCc3ccccc3)CC2)O1 [Fenspiride hydrochloride],Z Score,[7],−0.5762
same,Z score,[2],−0.576
same,Activity,[6],no
CC(C)(C(=O)O)c1ccc(C(O)CCCN2CCC(C(O)(c3ccccc3)c3ccccc3)CC2)cc1 (centres unmarked) [Fexofenadine hydrochloride],Activity,,no
same,Z Score,[7],−0.7572
same,Z score,[2],−0.757
COc1cccc2c1[C@@H]1CN(CCCCn3c(=O)[nH]c4c(sc5ncc(-c6ccccc6)nc54)c3=O)C[C@@H]1CO2 [Fiduxosin hydrochloride],Z Score,[4],0.2005
same,Z score,[2],0.200
same,Activity,[6],no
CC(=O)O.O=C(NCC1CCCCN1)c1cc(OCC(F)(F)F)ccc1OCC(F)(F)F (centres unmarked) [Flecainide acelate],Activity,,no
same,Z score,[2],−1.498
O=C(NCC1CCCCN1)c1cc(OCC(F)(F)F)ccc1OCC(F)(F)F (centres unmarked) [Flecainide acetate],Z Score,[1],−1.498
CCOC(=O)c1ncn2c1CN(C)C(=O)c1cc(F)ccc1-2 [Flumazenil],Activity,,no
same,Z Score,[7],−0.3664
same,Z score,[2],−0.366
Fc1ccc(C(c2ccc(F)cc2)N2CCN(C/C=C/c3ccccc3)CC2)cc1 [Flunarizine dihydrochloride],Z Score,[4],0.3954
same,Z score,[2],0.395
same,Activity,[6],no
CNCCC(Oc1ccc(C(F)(F)F)cc1)c1ccccc1 (centres unmarked) [Fluoxetine hydrochloride],Activity,,no
same,Z Score,[1],−1.311
same,Z score,[2],−1.311
OCCN1CCN(CCCN2c3ccccc3Sc3ccc(C(F)(F)F)cc32)CC1 [Fluphenazine dihydrochloride],Z Score,"168 h, 3 µM",−10.2
same,Z score,"168 h, 3 µM",−10.197
same,Activity,[3],yes
CCOC(=O)Nc1ccc(NCc2ccc(F)cc2)nc1N [Flupirtine maleate],Z Score,[7],−0.484
same,Z score,[2],−0.484
same,Activity,[6],no
O=C1NCN(c2ccccc2)C12CCN(CCCC(c1ccc(F)cc1)c1ccc(F)cc1)CC2 [Fluspirilene],Activity,,no
same,Z Score,[8],1.589
same,Z score,[2],1.589
CC(C)C(=O)Nc1ccc([N+](=O)[O-])c(C(F)(F)F)c1 [Flutamide],Z Score,[7],−0.1133
same,Z score,[2],−0.113
COCCCC/C(=N\OCCN)c1ccc(C(F)(F)F)cc1 [Fluvoxamine maleate],Activity,,no
same,Z Score,[4],0.1323
same,Z score,[2],0.132
C=C[C@@]1(C)CC(=O)[C@]2(O)[C@@]3(C)[C@@H](O)CCC(C)(C)[C@@H]3[C@H](O)[C@H](OC(C)=O)[C@@]2(C)O1 [Forskolin],Z Score,[1],−1.331
same,Z score,[2],−1.331
Cc1nc2c([nH]1)c(=O)n(C)c(=O)n2Cc1ccco1 [Furafylline],Z Score,[4],1.025
same,Z score,[2],1.025
same,Activity,[6],no
O=C(O)c1cc2cc(Cc3cccnc3)ccc2o1 [Furegrelate sodium],Z Score,[4],0.3638
same,Z score,[2],0.364
same,Activity,[6],no
NS(=O)(=O)c1cc(C(=O)O)c(NCc2ccco2)cc1Cl [Furosemide],Activity,,no
same,Z Score,[8],1.889
same,Z score,[2],1.889
CCCCc1ccc(C(=O)O)nc1 [Fusaric acid],Z Score,,−0.1413
same,Z score,[2],−0.141
CC(=O)O[C@H]1C[C@@]2(C)[C@@H](C[C@@H](O)[C@H]3[C@@]4(C)CC[C@@H](O)[C@@H](C)[C@@H]4CC[C@@]32C)/C1=C(\CCC=C(C)C)C(=O)O [Fusidic acid sodium],Z Score,[8],2.045
same,Z score,[2],2.045
same,Activity,[6],no
